Series [1] relates to luciferase-expressing A549 cells. The series can be described thus: Therapeutic experiment 2 in A549 lung cancer orthotopic transplantation model. Type of series: in vivo, mice. The following applies: i.v. 40 mg/kg 5 times then 80 mg/kg 7 times every other day; for tumor suppression effect (luciferin/luciferase chemiluminescence): vs Vehicle. The procedure:
Using SN38-βGal and SN38-βGlcNAc, the dose was increased to verify the therapeutic effect in the lung cancer orthotopic transplantation model. Whether the tumor suppression effect was confirmed was evaluated as compared with the Vehicle group (DMSO administration) by separating the SN38-βGal and SN38-βGlcNAc administration groups. The evaluation was performed on luciferase-expressing A549 cell […] mice using BALB/cAJcl-nu/nu with n = 3 for the Vehicle group, n = 4 for the SN38-βGal group, and n = 5 for the SN38-βGlcNAc group. The administration form was intravenous administration (i.v.).
For administration, 40 mg/kg was administered 5 times in total every other day, and then 80 mg/kg was administered 7 times in total every other day. The tumor burden was determined by evaluating the luciferin/luciferase chemiluminescence value. The endpoint was a significant body weight loss (20% loss).
A specific procedure of the therapeutic experiment is shown below. • (1) Model mice were created by the following operation using BALB/cAJcl-nu/nu (7 weeks old). The skin of the chest was incised, and the skin was subcutaneously detached, then luciferase-expressing A549 cells 2 × 10^7 cells/mL (50 µL, 5% Matrigel) was injected from the intercostal pleura to the left lung. After injection, the skin was sutured. • (2) After 1 week, the formation of cancer was confirmed by luciferin/luciferase chemiluminescence, and the intravenous administration of the drug was started. The drug was prepared by dissolving a 200 mM of DMSO stock in PBS, and administered in a total amount of 100 µL. 3 mg (200 µL) of luciferin was administered by intraperitoneal administration, and anesthetized with isoflurane. Thereafter, the chemiluminescent value at 20 minutes after administration was measured by an in vivo imaging device. • (3) On the day of evaluation, the tumor burden was evaluated by luciferin/luciferase chemiluminescence. • (4) After completion of the treatment, HMRef-βGlcNAc, 5 mg/kg (100 µL PBS) was administered by intravenous administration. 30 minutes after administration, the sternum was incised, and the lungs were taken out. • (5) The cancer lesion was fluorescently imaged by an in vivo fluorescence imaging device, and comparison between the Vehicle and the administration group was performed.

Series [2] addresses T1, Human β-Galactosidase 1 (GLB1) (Homo sapiens, UniProt P16278).
T1 sequence (P16278 29-677): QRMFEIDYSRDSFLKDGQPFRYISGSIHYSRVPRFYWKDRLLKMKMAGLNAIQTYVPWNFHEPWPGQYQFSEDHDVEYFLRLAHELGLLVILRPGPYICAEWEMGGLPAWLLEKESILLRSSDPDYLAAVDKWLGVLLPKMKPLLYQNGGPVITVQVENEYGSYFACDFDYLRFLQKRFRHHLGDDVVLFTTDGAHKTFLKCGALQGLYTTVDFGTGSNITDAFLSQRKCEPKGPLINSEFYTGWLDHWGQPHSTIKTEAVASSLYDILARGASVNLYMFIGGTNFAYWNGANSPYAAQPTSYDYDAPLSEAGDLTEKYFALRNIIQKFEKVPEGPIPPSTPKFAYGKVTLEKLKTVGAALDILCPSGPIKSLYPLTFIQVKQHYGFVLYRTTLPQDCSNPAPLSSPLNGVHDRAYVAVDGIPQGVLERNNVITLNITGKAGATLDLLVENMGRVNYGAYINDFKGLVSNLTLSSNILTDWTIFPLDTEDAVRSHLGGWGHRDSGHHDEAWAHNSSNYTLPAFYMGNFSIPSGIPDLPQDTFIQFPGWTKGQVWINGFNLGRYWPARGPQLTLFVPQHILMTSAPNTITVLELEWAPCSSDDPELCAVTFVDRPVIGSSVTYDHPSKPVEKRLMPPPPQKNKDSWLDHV
In words: Evaluation of drug release using LC-MS. The following applies: GLB1 purified enzyme added. In kind it is biochemical. An excerpt:
Reactivity with Human β-Galactosidase 1 (GLB1), which is an assumed target enzyme of SN38-βGal, was confirmed using LC-MS.

For series [3], the system named is primary lung squamous cell carcinoma PDX tumor (DLUN013/F_PDX_000162). The series can be described thus: Tumor proliferation suppression test in PDX model mice. Type of series: in vivo. The conditions noted are these: 200 mg/kg i.v., 6 times over 2 weeks. The procedure:
With respect to SN38-βGlcNAc showing high sensitivity by the organoid test, an in vivo tumor proliferation suppression test was performed using a primary lung squamous cell carcinoma PDX tumor (DLUN013/F_PDX_000162) established at Fukushima Medical University Medical and Industrial TR Center from the same patient. 200 mg/kg of SN38-βGlcNAc was intravenously administered to PDX subcutaneous tumor model mice a total of 6 times over 2 weeks as shown in the administration schedule (a of Fig. 30), and the tumor proliferation suppression effect was evaluated. The Vehicle (DMSO administration) group and the SN38-βGlcNAc administration group were n = 6, respectively.
A specific procedure of the therapeutic experiment is shown below. • (1) The tube containing the frozen tumor tissue was thawed in a thermostatic water bath at 37°C. […] The SN38-βGlcNAc was prepared by dissolving a 400 mM of DMSO stock in PBS, and was intravenously administered from the tail vein 3 times a week for 2 weeks at a dose of 200 mg/kg with a total amount of 100 µL. • (5) The tumor volume and body weight were measured on the day of evaluation. • (6) The tumor was removed, and then subjected to fluorescence imaging using HMRef-βGlcNAc (50 µM, PBS solution) in the presence and absence of PUGNAc (500 µM), which is an inhibitor of β-hexosaminidase.

Regarding `CCc1c2c(nc3ccc(O[C@@H]4O[C@H](CO)[C@H](O)[C@H](O)[C@H]4O)cc13)-c1cc3c(c(=O)n1C2)COC(=O)[C@]3(O)CC` [SN38-βGal], in series [1], the body weight entry is “the body weight loss was not found in the first 2 weeks” and the “tumor suppression effect (luciferin/luciferase chemiluminescence)” value is “the tumor growth was significantly suppressed in all mice”. In addition, the “release of SN38” value in series [2] is “the release of SN38 showing an anticancer effect was confirmed”.
Consider `CCc1c2c(nc3ccc(O[C@@H]4O[C@H](CO)[C@@H](O)[C@H](O)[C@H]4NC(C)=O)cc13)-c1cc3c(c(=O)n1C2)COC(=O)[C@]3(O)CC` [SN38-βGlcNAc], for which, in series [1], the body weight result was “the body weight loss was not found in the first 2 weeks” and the “tumor suppression effect (luciferin/luciferase chemiluminescence)” value is given as “the tumor growth was significantly suppressed in all mice”. In addition, the body weight change entry in series [3] was “No body weight change was observed”. Moreover, in series [3] (n = 6, vs Vehicle), the “tumor proliferation suppression effect (tumor volume)” value is listed as “the tumor growth was significantly suppressed”.

(Values after patent publication EP4772520A1, “NOVEL PRODRUG-TYPE ANTICANCER AGENT TARGETING CANCER-SPECIFIC ENZYME ACTIVITY” (priority 2023, dated 2025).)
